Experimental findings from paper PMC8899516, “Structure-Activity Relationship Studies of 4-((4-(2-fluorophenyl)piperazin-1-yl)methyl)-6-imino-N-(naphthalen-2-yl)-1,3,5-triazin-2-amine (FPMINT) Analogues as Inhibitors of Human Equilibrative Nucleoside Transporters” (Frontiers in Pharmacology, 2022) are described below.

The subject of the test is ENT1. The test is described as follows: Western blotting of ENT1 protein expression. It is filed as cell-based, human. The settings on record: 50 µM, 24 h or 48 h. How it is done:
PK15NTD/ENT1 and PK15NTD/ENT2 cells were grown to confluence in 10-cm culture dishes and treated with 50 µM of compound 3c or an equivalent volume of a vehicle (0.5% DMSO) for 24 h or 48 h. The cells were washed thrice with ice-cold PBS. Total protein was extracted by cell lysis in a lysis buffer (5 mM sodium monophosphate, pH 8) with a protease inhibitor cocktail (Sigma, St Louis, MO, United States; 1:1,000 [v/v]). The protein content was measured by bicinchoninic acid assay. Protein samples were separated by 12.5% sodium dodecyl sulfate–polyacrylamide gel electrophoresis (SDS-PAGE) and blotted onto polyvinylidene difluoride (PVDF) membranes. […] The membranes were then again washed, and the bound secondary antibodies were detected using an enhanced chemiluminescence kit (Bio-Rad, Hercules, CA, United States). […] To semi-quantify the ENT1 and ENT2 protein levels, the same membranes were washed three times with a stripping buffer for 10 min at room temperature, and the protein expression level of β-actin was measured using monoclonal mouse anti-β-actin primary antibodies (1:3,000 [v/v] dilution in a blocking solution). […]
FIGURE 5 Effects of compound 3c on cytotoxicity and protein expressions of ENT1 and ENT2. […] Total ENT1 and ENT2 from whole-cell lysates were also detected for a comparison. β-actin served as an internal reference. […]
(In general: Immunoblotting shows a protein as a band on a membrane.)

On to `Cc1cccc(Nc2nc(N)nc(CN3CCN(c4ccc(F)cc4)CC3)n2)c1` [Compound 3c], for which the “protein expression level of ENT1” value is on record as “unaltered”.
